Laboratory results reported in patent publication US4652575A, “2-(ethylene-thio methyl furanyl)amino thiazole derivatives having acid secretion inhibiting activity” (Medosan Industrie Biochimiche Riunite S.p.A., priority 1984, dated 1987).
Where two headings read alike, the source gives them in different places.

Assays:
histamine H2 receptors = target: T1, histamine H2 receptors (Cavia porcellus, UniProt P47747); experiment: Antagonistic activity to the histamine H2 receptors "in vitro" on insulated atrium auricolas of Guinea pig heart; conditions: for inhibition at 10 µM / inhibition at 1 µM / inhibition at 0.1 µM / inhibition at 0.01 µM: guinea pig, 0.5 h, read-out: Antagonizing activity to histamine H2 receptors; for inhibition at 10 µM: compound 1·10^-5 M/L; for inhibition at 1 µM: compound 1·10^-6 M/L; for inhibition at 0.1 µM: compound 1·10^-7 M/L; for antagonistic action to the histamine H2 receptors (in words): in vitro; for inhibition at 0.01 µM: compound 1·10^-8 M/L
T1 construct: tests on insulated atrium auricolas of Guinea pig heart; from tissue; host or cells: isolated guinea pig heart atrium
Experimental: (§1) The preparations were a solution of the substances in 2.5% citric acid for the "in vitro" test and 5% citric acid for the "in vivo" test respectively. Citric acid was diluted in normal physiologic saline at neutral pH.
This activity was evaluated "in vitro" by carrying out tests on insulated atrium auricolas of Guinea pig heart. […] Metering was carried out by placing the preparation into a vessel containing a Ringer-Locke solution wherein pure oxygen was bubbling, at a temperature of 37° C. A response of the organ "in vitro" was first established at cumulative histamine doses of 2.5.10^-7, 5.10^-7, 10^-6, 5.10^-6, 10^-5 M/L. After obtaining two constant lines with histamine at a time interval of one hour from one another, the substances under test were added to the bath and after a 30 minutes contact with the preparation, a new histamine response line in the presence of the substance under test was drawn. The activity was tested at various concentrations of the new compounds (10^-5, 10^-6, 10^-7 and in one case 10^-8 M/L).

gastric secretion = experiment: Activity on gastric secretion "in vivo" (volume and total acidity of gastric juice after pylorus tieing, Shay); design: species or system male Wistar rats; conditions: for Total acidity gastric juice secretion / Volume gastric juice secretion / change in vivo at 20 mg/kg: 20 mg/kg oral; for change in vivo at 20 mg/kg / ED50: Rattus norvegicus, po; for ED50: per os, 1 hour before pilorus tieing, read-out: DE50 in rat calculated on total acidity (mEq/4 hours); for ability to reduce the gastric acid secretion (in words): volume and total acidity of gastric juice
Experimental: as §1
The ability of the compounds according to the present invention to inhibit the gastric secretion was studied "in vivo" both by evaluating the volume reduction of gastric juice, and by measuring the total acidity of same after administration of the substances under test according to the Takeda method (see the aforementioned literature).
To this end, tests have been made on male Wistar rats of an average weight of 200 g. The animals, 10 for each substance, were placed into individual cages provided with ground grating in order to avoid coprophagy, without food but with free access to water for 24 hours before test. […] Four hours later the animals were sacrificed and the gastric juice was collected, of which the volume expressed in ml and the total acidity expressed in mEq was measured. The gastric juice ([…] ) was titrated with 0.1N NaOH to pH 7 to determine the acid concentration. The total acidity was then calculated as the product of the total volume of gastric juice by the acid concentration.

in vivo = conditions: po; for LD50 at 360 h: mouse; for LD50: rat
Description: The animals were kept under observation by checking mortality and possible pain signs for 15 days from start of test.

[1] = 6 hours before pilorus tieing, read-out: Total acidity gastric juice secretion, Variation %
[2] = 6 hours before pilorus tieing, read-out: Volume gastric juice secretion, Variation %
[3] = 12 hours before pilorus tieing, read-out: Total acidity gastric juice secretion, Variation %
[4] = 12 hours before pilorus tieing, read-out: Volume gastric juice secretion, Variation %
[5] = 24 hours before pilorus tieing, read-out: Total acidity gastric juice secretion, Variation %
[6] = 24 hours before pilorus tieing, read-out: Volume gastric juice secretion, Variation %
[7] = 36 hours before pilorus tieing, read-out: Total acidity gastric juice secretion, Variation %
[8] = 36 hours before pilorus tieing, read-out: Volume gastric juice secretion, Variation %

T1 sequence (P47747 whole entry): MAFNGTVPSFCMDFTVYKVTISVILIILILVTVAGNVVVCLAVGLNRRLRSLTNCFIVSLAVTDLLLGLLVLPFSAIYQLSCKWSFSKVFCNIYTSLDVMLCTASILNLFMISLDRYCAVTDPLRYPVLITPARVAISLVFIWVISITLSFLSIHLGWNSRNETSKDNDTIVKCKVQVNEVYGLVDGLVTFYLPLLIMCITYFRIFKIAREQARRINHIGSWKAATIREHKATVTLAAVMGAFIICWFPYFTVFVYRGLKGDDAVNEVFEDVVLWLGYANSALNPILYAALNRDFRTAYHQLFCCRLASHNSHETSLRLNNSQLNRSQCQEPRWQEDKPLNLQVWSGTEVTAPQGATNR

CN(C)Cc1ccc(CSCCNc2nc(-c3ccc(-c4ccccc4)cc3)cs2)o1 [Example No. 5, 2-(2-(((5-(dimethylamino)methyl-2-furanyl)methyl)thio)ethyl)amino-4-(4-biphenyl)-thiazole]
inhibition at 10 µM (histamine H2 receptors; histamine 1·10^-5 M/L): 100%
inhibition at 10 µM (histamine H2 receptors; histamine 1·10^-6 M/L): 100%
inhibition at 10 µM (histamine H2 receptors; histamine 2,5·10^-7 M/L): 100%
inhibition at 10 µM (histamine H2 receptors; histamine 5·10^-6 M/L): 100%
inhibition at 10 µM (histamine H2 receptors; histamine 5·10^-7 M/L): 100%
inhibition at 1 µM (histamine H2 receptors; histamine 1·10^-5 M/L): 45%
inhibition at 1 µM (histamine H2 receptors; histamine 1·10^-6 M/L): 70%
inhibition at 1 µM (histamine H2 receptors; histamine 2,5·10^-7 M/L): 100%
inhibition at 1 µM (histamine H2 receptors; histamine 5·10^-6 M/L): 60%
inhibition at 1 µM (histamine H2 receptors; histamine 5·10^-7 M/L): 90%
inhibition at 0.1 µM (histamine H2 receptors; histamine 1·10^-5 M/L): 25%
inhibition at 0.1 µM (histamine H2 receptors; histamine 1·10^-6 M/L): 65%
inhibition at 0.1 µM (histamine H2 receptors; histamine 2,5·10^-7 M/L): 95%
inhibition at 0.1 µM (histamine H2 receptors; histamine 5·10^-6 M/L): 40%
inhibition at 0.1 µM (histamine H2 receptors; histamine 5·10^-7 M/L): 85%
antagonistic action to the histamine H2 receptors (in words) (histamine H2 receptors): interesting ability
Total acidity gastric juice secretion (gastric secretion; 6 hours before pilorus tieing): 0,08 mEq/4 hours
Volume gastric juice secretion (gastric secretion; 6 hours before pilorus tieing): 3,7 ml/4 hours
Total acidity gastric juice secretion (gastric secretion; 12 hours before pilorus tieing): 0,08 mEq/4 hours
Volume gastric juice secretion (gastric secretion; 12 hours before pilorus tieing): 3,8 ml/4 hours
Total acidity gastric juice secretion (gastric secretion; 24 hours before pilorus tieing): 0,13 mEq/4 hours
Volume gastric juice secretion (gastric secretion; 24 hours before pilorus tieing): 4,9 ml/4 hours
Total acidity gastric juice secretion (gastric secretion; 36 hours before pilorus tieing): 0,13 mEq/4 hours
Volume gastric juice secretion (gastric secretion; 36 hours before pilorus tieing): 4,4 ml/4 hours
change in vivo at 20 mg/kg (gastric secretion; [1]): -53%
change in vivo at 20 mg/kg (gastric secretion; [2]): -30%
change in vivo at 20 mg/kg (gastric secretion; [3]): -47%
change in vivo at 20 mg/kg (gastric secretion; [4]): -25%
change in vivo at 20 mg/kg (gastric secretion; [5]): -23%
change in vivo at 20 mg/kg (gastric secretion; [6]): -13%
change in vivo at 20 mg/kg (gastric secretion; [7]): -19%
change in vivo at 20 mg/kg (gastric secretion; [8]): -21%
ED50 (gastric secretion): 1.6 mg/kg
ability to reduce the gastric acid secretion (in words) (gastric secretion): interesting ability
LD50 at 360 h (in vivo): 2300 mg/kg
LD50 (in vivo): 3300 mg/kg

CN(C)Cc1ccc(CSCCNc2nc(-c3ccc4ccccc4c3)cs2)o1 [Example No. 6, 2-(2-(((5-(dimethylamino)methyl-2-furanyl)methyl)thio)ethyl)-amino-4-(2-naphthyl)-thiazole]
inhibition at 10 µM (histamine H2 receptors; histamine 1·10^-5 M/L): 90%
inhibition at 10 µM (histamine H2 receptors; histamine 1·10^-6 M/L): 100%
inhibition at 10 µM (histamine H2 receptors; histamine 2,5·10^-7 M/L): 100%
inhibition at 10 µM (histamine H2 receptors; histamine 5·10^-6 M/L): 90%
inhibition at 10 µM (histamine H2 receptors; histamine 5·10^-7 M/L): 100%
inhibition at 1 µM (histamine H2 receptors; histamine 1·10^-5 M/L): 40%
inhibition at 1 µM (histamine H2 receptors; histamine 1·10^-6 M/L): 90%
inhibition at 1 µM (histamine H2 receptors; histamine 2,5·10^-7 M/L): 100%
inhibition at 1 µM (histamine H2 receptors; histamine 5·10^-6 M/L): 70%
inhibition at 1 µM (histamine H2 receptors; histamine 5·10^-7 M/L): 100%
inhibition at 0.1 µM (histamine H2 receptors; histamine 1·10^-5 M/L): 35%
inhibition at 0.1 µM (histamine H2 receptors; histamine 1·10^-6 M/L): 70%
inhibition at 0.1 µM (histamine H2 receptors; histamine 2,5·10^-7 M/L): 95%
inhibition at 0.1 µM (histamine H2 receptors; histamine 5·10^-6 M/L): 50%
inhibition at 0.1 µM (histamine H2 receptors; histamine 5·10^-7 M/L): 95%
inhibition at 0.01 µM (histamine H2 receptors; histamine 1·10^-5 M/L): 15%
inhibition at 0.01 µM (histamine H2 receptors; histamine 1·10^-6 M/L): 70%
inhibition at 0.01 µM (histamine H2 receptors; histamine 2,5·10^-7 M/L): 95%
inhibition at 0.01 µM (histamine H2 receptors; histamine 5·10^-6 M/L): 50%
inhibition at 0.01 µM (histamine H2 receptors; histamine 5·10^-7 M/L): 85%
antagonistic action to the histamine H2 receptors (in words) (histamine H2 receptors): interesting ability
Total acidity gastric juice secretion (gastric secretion; 6 hours before pilorus tieing): 0,05 mEq/4 hours
Volume gastric juice secretion (gastric secretion; 6 hours before pilorus tieing): 3,0 ml/4 hours
Total acidity gastric juice secretion (gastric secretion; 12 hours before pilorus tieing): 0,04 mEq/4 hours
Volume gastric juice secretion (gastric secretion; 12 hours before pilorus tieing): 2,9 ml/4 hours
Total acidity gastric juice secretion (gastric secretion; 24 hours before pilorus tieing): 0,12 mEq/4 hours
Volume gastric juice secretion (gastric secretion; 24 hours before pilorus tieing): 4,5 ml/4 hours
Total acidity gastric juice secretion (gastric secretion; 36 hours before pilorus tieing): 0,12 mEq/4 hours
Volume gastric juice secretion (gastric secretion; 36 hours before pilorus tieing): 5,0 ml/4 hours
change in vivo at 20 mg/kg (gastric secretion; [1]): -70%
change in vivo at 20 mg/kg (gastric secretion; [2]): -43%
change in vivo at 20 mg/kg (gastric secretion; [3]): -73%
change in vivo at 20 mg/kg (gastric secretion; [4]): -37%
change in vivo at 20 mg/kg (gastric secretion; [5]): -29%
change in vivo at 20 mg/kg (gastric secretion; [6]): -20%
change in vivo at 20 mg/kg (gastric secretion; [7]): -25%
change in vivo at 20 mg/kg (gastric secretion; [8]): -11%
ED50 (gastric secretion): 1.8 mg/kg
ability to reduce the gastric acid secretion (in words) (gastric secretion): interesting ability
LD50 at 360 h (in vivo): 2100 mg/kg
LD50 (in vivo): 2800 mg/kg
